Reference: ChEMBL document CHEMBL1148830, “Discovery and investigation of antiproliferative and apoptosis-inducing properties of new heterocyclic podophyllotoxin analogues accessible by a one-step multicomponent synthesis” (2007)
Activity calls are given as the source filed them. No cut-off for these calls is given here.

Experiments:
HeLa [1] = experiment: Antiproliferative activity against HeLa cells assessed as cell viability at 5 uM after 48 hrs by MTT assay relative to control; assay type: functional; conditions: Homo sapiens, read-out: Activity
Jurkat [2] = experiment: Antiproliferative activity against human Jurkat cells assessed as cell viability at 5 uM after 48 hrs by MTT assay; assay type: functional; conditions: read-out: Activity
Jurkat [3] = experiment: Induction of apoptosis in Jurkat cells assessed as cell viability at 5 uM after 48 hrs by flow cytometry Annexin-V/propidium iodide assay; assay type: functional; conditions: Homo sapiens, read-out: Activity
[4] = Antiproliferative activity against human MCF7/AZ cells assessed as cell viability at 5 uM after 48 hrs by MTT assay relative to control; assay type: functional; conditions: read-out: Activity
Jurkat [5] = experiment: Effect on apoptosis in Jurkat cells assessed as cleavage of PARP at 5 uM; assay type: functional, cell-based; conditions: Homo sapiens
Jurkat [6] = experiment: Increase in caspase 3 activation in Jurkat cells at 5 uM; assay type: functional; conditions: for Activity: Homo sapiens
Jurkat [7] = experiment: Increase in caspase 3 activation in Jurkat cells at 1 uM; assay type: functional, cell-based; conditions: Homo sapiens
Jurkat [8] = experiment: Effect on apoptosis in Jurkat cells assessed as cleavage of procaspase 3 to active enzyme at 1 uM; assay type: functional, cell-based; conditions: Homo sapiens
Jurkat [9] = experiment: Effect on apoptosis in Jurkat cells assessed as cleavage of PARP at 1 uM; assay type: functional, cell-based; conditions: Homo sapiens
Lymphocyte = experiment: Induction of apoptosis in human whole blood lymphocytes after 24 hrs by flow cytometric Annexin-V/propidium iodide assay; assay type: functional, cell-based
HeLa [10] = experiment: Growth inhibition of HeLa cells after 48 hrs by MTT assay; assay type: functional; conditions: Homo sapiens
Jurkat [11] = experiment: Effect on apoptosis in Jurkat cells assessed as DNA laddering after 24 hrs; assay type: functional, cell-based; conditions: Homo sapiens
Jurkat [12] = experiment: Induction of apoptosis in Jurkat cells after 24 hrs by flow cytometric Annexin-V/propidium iodide assay; assay type: functional, cell-based; conditions: Homo sapiens
Jurkat [13] = experiment: Effect on apoptosis in Jurkat cells assessed as cleavage of procaspase 3 to active enzyme at 5 uM; assay type: functional, cell-based; conditions: Homo sapiens

Row | Compound | viability at 5 µM (HeLa [1]) [%] | viability at 5 µM (Jurkat [2]) [%] | viability at 5 µM (Jurkat [3]) [%] | viability at 5 µM [4] [%] | other results
1 | COc1ccc(C2C3=C(COC3=O)Nc3[nH]nc(C)c32)cc1OC (centres undefined) | 73 | 88 | 5 | 95 | 
2 | Cc1n[nH]c2c1C(c1ccccc1[N+](=O)[O-])C1=C(COC1=O)N2 (centres undefined) | 71 | 64 | 6 | 99 | 
3 | Cc1n[nH]c2c1C(c1c(C)nc3sccn13)C1=C(COC1=O)N2 (centres undefined) | 84 | 85 | 7 | 100 | Activity (Jurkat [5]): inactive
4 | Cc1n[nH]c2c1C(c1ccc(Br)cc1)C1=C(COC1=O)N2 (centres undefined) | 62 | 90 | 10 | 92 | 
5 | COc1cc2c(c(OC)c1OC)-c1ccc(OC)c(=O)cc1[C@@H](NC(C)=O)CC2 |  |  |  |  | Activity (Jurkat [6]): Active
6 | CC[C@]1(O)C[C@@H]2CN(CCc3c([nH]c4ccccc34)[C@@](C(=O)OC)(c3cc4c(cc3OC)N(C)[C@H]3[C@@](O)(C(=O)OC)[C@H](OC(C)=O)[C@]5(CC)C=CCN6CC[C@]43[C@@H]65)C2)C1 |  |  |  |  | Activity (Jurkat [7]): Active; Activity (Jurkat [8]): Active; Activity (Jurkat [9]): Active
7 | Cc1n[nH]c2c1C(C)C1=C(COC1=O)N2 (centres undefined) | 70 | 78 | 5 | 97 | 
8 | Cc1n[nH]c2c1C(c1ccc(Cl)c(Cl)c1)C1=C(COC1=O)N2 (centres undefined) | 88 | 71 | 33 | 56 | 
9 | Cc1n[nH]c2c1C(c1ccc(OC(F)(F)F)cc1)C1=C(COC1=O)N2 (centres undefined) | 97 | 97 | 9 | 84 | 
10 | COc1cc(C2C3=C(COC3=O)Nc3c2c(C)nn3-c2ccc(C)cc2)cc(OC)c1OC (centres undefined) | 77 | 77 | 23 | 71 | 
11 | C=C(C)[C@@H]1CC=C(C2C3=C(COC3=O)Nc3[nH]nc(C)c32)CC1 (some centres undefined) | 95 | 89 | 14 | 91 | 
12 | Cc1n[nH]c2c1C(c1cccc(F)c1)C1=C(COC1=O)N2 (centres undefined) | 99 | 84 | 28 | 76 | 
13 | Cc1nc2ccccc2nc1C1C2=C(COC2=O)Nc2[nH]nc(C)c21 (centres undefined) | 72 | 97 | 11 | 100 | 
14 | Cc1n[nH]c2c1C(c1ccccc1Br)C1=C(COC1=O)N2 (centres undefined) | 57 | 90 | 8 | 100 | 
15 | COc1cc(C2C3=C(COC3=O)Nc3c2c(C)nn3C)cc(OC)c1OC (centres undefined) | 55 | 79 | 5 | 98 | 
16 | Cc1n[nH]c2c1C(c1cccs1)C1=C(COC1=O)N2 (centres undefined) | 82 | 74 | 18 | 98 | 
17 | Cc1n[nH]c2c1C(c1cc(Br)c(O)c(Br)c1)C1=C(COC1=O)N2 (centres undefined) | 58 | 58 | 53 | 60 | Fold change (Jurkat [6]): 3; Activity (Lymphocyte): inactive; GI50 (HeLa [10]): 8 µM
18 | COc1cc(C2C3=C(COC3=O)Nc3[nH]nc(C)c32)cc([N+](=O)[O-])c1O (centres undefined) | 78 | 90 | 5 | 89 | 
19 | Cc1n[nH]c2c1C(c1ccsc1)C1=C(COC1=O)N2 (centres undefined) | 98 | 82 | 6 | 100 | 
20 | COc1cc(C2C3=C(COC3=O)Nc3c2c(-c2ccc(Br)cc2)nn3-c2ccccc2)cc(OC)c1OC (centres undefined) | 73 | 99 | 2 | 90 | 

Row | Compound | viability at 5 µM (HeLa [1]) [%] | viability at 5 µM (Jurkat [2]) [%] | viability at 5 µM (Jurkat [3]) [%] | viability at 5 µM [4] [%] | other results
21 | COc1cc(C2C3=C(COC3=O)Nc3c2c(C)nn3C(C)C)cc(OC)c1OC (centres undefined) | 83 | 77 | 4 | 99 | 
22 | CCOc1c(Br)cc(C2C3=C(COC3=O)Nc3[nH]nc(C)c32)cc1OC (centres undefined) | 52 | 28 | 49 | 49 | Fold change (Jurkat [6]): 3; Activity (Lymphocyte): inactive; GI50 (HeLa [10]): 5 µM
23 | CSc1ccc(C2C3=C(COC3=O)Nc3[nH]nc(C)c32)cc1 (centres undefined) | 45 | 87 | 14 | 95 | 
24 | Cc1n[nH]c2c1C(c1c(C)nn(-c3ccccc3)c1Cl)C1=C(COC1=O)N2 (centres undefined) | 58 | 94 | 6 | 100 | 
25 | Cc1n[nH]c2c1C(c1cccnc1)C1=C(COC1=O)N2 (centres undefined) | 69 | 88 | 11 | 96 | 
26 | Cc1n[nH]c2c1C(c1ccc(N(C)C)c(Br)c1)C1=C(COC1=O)N2 (centres undefined) | 55 | 34 | 41 | 59 | Fold change (Jurkat [6]): 3; Activity (Lymphocyte): inactive; GI50 (HeLa [10]): 6 µM
27 | COc1cc(C2C3=C(COC3=O)Nc3[nH]nc(C)c32)cc(Br)c1OC(C)=O (centres undefined) | 47 | 36 | 58 | 46 | Fold change (Jurkat [6]): 3; Activity (Lymphocyte): inactive; GI50 (HeLa [10]): 4 µM
28 | Cc1n[nH]c2c1C(c1cccc(Cl)c1)C1=C(COC1=O)N2 (centres undefined) | 43 | 76 | 28 | 54 | Fold change (Jurkat [6]): 3; GI50 (HeLa [10]): 10 µM
29 | COc1cc(C2C3=C(COC3=O)Nc3[nH]nc(C)c32)cc(OC)c1OC (centres undefined) | 50 | 47 | 55 | 58 | Activity (Jurkat [11]): Active; Activity (Jurkat [5]): Active; Activity (Jurkat [12]): Active; Fold change (Jurkat [6]): 3; Activity (Lymphocyte): inactive; Activity (Jurkat [13]): Active; GI50 (HeLa [10]): 5 µM
30 | COc1cc([C@@H]2c3cc4c(cc3[C@H](O)[C@H]3COC(=O)[C@H]23)OCO4)cc(OC)c1OC [PODOFILOX] | 19 | 18 | 54 | 55 | Activity (Jurkat [5]): Active; Activity (Jurkat [12]): Active; Activity (Jurkat [6]): Active; Activity (Lymphocyte): inactive; Activity (Jurkat [13]): Active; GI50 (HeLa [10]): 0.02 µM
31 | COc1cc(C2C3=C(COC3=O)Nc3[nH]nc(-c4ccc(Br)cc4)c32)cc(OC)c1OC (centres undefined) | 67 | 78 | 5 | 98 | 
32 | Cc1n[nH]c2c1C(c1ccccc1)C1=C(COC1=O)N2 (centres undefined) | 74 | 87 | 10 | 84 | 
33 | COc1cc(C2C3=C(COC3=O)Nc3cc4c(cc32)OCO4)cc(OC)c1OC (centres undefined) | 54 | 54 | 55 | 52 | GI50 (HeLa [10]): 6 µM
34 | COc1cc2c(c(OC)c1)C(c1cc(OC)c(OC)c(OC)c1)C1=C(COC1=O)N2 (centres undefined) | 55 | 55 | 55 | 43 | 
35 | COc1ccc(C2C3=C(COC3=O)Nc3[nH]nc(C)c32)cc1 (centres undefined) | 73 | 94 | 11 | 82 | 
36 | COc1cc(C2C3=C(COC3=O)Nc3[nH]nc(C)c32)cc(Br)c1OC (centres undefined) | 16 | 29 | 56 | 47 | Fold change (Jurkat [6]): 3; Activity (Lymphocyte): inactive; GI50 (HeLa [10]): 0.75 µM
37 | Cc1n[nH]c2c1C(c1ccncc1)C1=C(COC1=O)N2 (centres undefined) | 94 | 92 | 4 | 100 | 
38 | Cc1n[nH]c2c1C(c1cccc(Br)c1)C1=C(COC1=O)N2 (centres undefined) | 51 | 68 | 58 | 63 | Activity (Jurkat [12]): Active; Fold change (Jurkat [6]): 3; Activity (Lymphocyte): inactive; GI50 (HeLa [10]): 5 µM
39 | COc1cc2c(cc1OC)C(c1cc(OC)c(OC)c(OC)c1)C1=C(O)OCC1=N2 (centres undefined) | 53 | 35 | 49 | 58 | GI50 (HeLa [10]): 6 µM
